Measurements as given in article PMC9447987, “Long-term memory CD8^+ T cells specific for SARS-CoV-2 in individuals who received the BNT162b2 mRNA vaccine” (Nature Communications, 2022).
Where two headings read alike, the source gives them in different places.

Experiments:
[1] = test system: HLA-A*24:02-restricted CD8+ T cells; assay type: cell-based, human
[2] = target: HLA-A*24:02 (Homo sapiens, UniProt P04439, D101N/D140Y/D185E/E176V/E190D/F33S/G103R/G107R/I119L/I121M/I306V/K335N/L105A/L180Q/L300P/N151K/N90K/Q86E/Q94H/R106L/R138H/R89G/T104I/T345S/V100E/W191G/Y123F); experiment: HLA stabilization assay using RMA-S-A2402 cells; assay type: binding; conditions: for MFI, HLA-A2402 (APC), representative staining: RMA-S-A2402 cells, Suppl. Fig. 3b (for Fig. 4a, 4b), peptide(-) 14.8, 26 °C (Maximum) 32.7
[3] = convalescent donor C2, 45.290 weeks since PCR-confirmed diagnosis, […], peptide-pulsed C1R-A2402
[4] = convalescent donor C3, 2.430 weeks since PCR-confirmed diagnosis, […], peptide-pulsed C1R-A2402
[5] = convalescent donor C4, 35.000 weeks since PCR-confirmed diagnosis, […], peptide-pulsed C1R-A2402
[6] = convalescent donor C5, 41.430 weeks since PCR-confirmed diagnosis, […], peptide-pulsed C1R-A2402
[7] = convalescent donor C6, 20.000 weeks since PCR-confirmed diagnosis, […], peptide-pulsed C1R-A2402
[8] = convalescent donor C7, 21.710 weeks since PCR-confirmed diagnosis, […], peptide-pulsed C1R-A2402
[9] = convalescent donor C8, 47.860 weeks since PCR-confirmed diagnosis, […], peptide-pulsed C1R-A2402
[10] = convalescent donor C9, 21.860 weeks since PCR-confirmed diagnosis, […], peptide-pulsed C1R-A2402
[11] = convalescent donor C10, 24.570 weeks since PCR-confirmed diagnosis, […], peptide-pulsed C1R-A2402
[12] = convalescent donor C11, 24.290 weeks since PCR-confirmed diagnosis, […], peptide-pulsed C1R-A2402
[13] = vaccinated donor V1, 19.000 weeks since 2nd dose, […], C1R-A2402 pre-pulsed with 1 μM peptide
[14] = vaccinated donor V2, 9.570 weeks since 2nd dose, […], C1R-A2402 pre-pulsed with 1 μM peptide
[15] = vaccinated donor V3, 8.860 weeks since 2nd dose, […], C1R-A2402 pre-pulsed with 1 μM peptide
[16] = vaccinated donor V4, 10.430 weeks since 2nd dose, […], C1R-A2402 pre-pulsed with 1 μM peptide
[17] = vaccinated donor V5, 10.570 weeks since 2nd dose, […], C1R-A2402 pre-pulsed with 1 μM peptide
[18] = vaccinated donor V6, 9.570 weeks since 2nd dose, […], C1R-A2402 pre-pulsed with 1 μM peptide
[19] = vaccinated donor V7, 10.140 weeks since 2nd dose, […], C1R-A2402 pre-pulsed with 1 μM peptide
[20] = vaccinated donor V8, 9.860 weeks since 2nd dose, […], C1R-A2402 pre-pulsed with 1 μM peptide
[21] = vaccinated donor V9, 20.570 weeks since 2nd dose, […], C1R-A2402 pre-pulsed with 1 μM peptide
[22] = vaccinated donor V10, 2.000 weeks since 2nd dose, […], C1R-A2402 pre-pulsed with 1 μM peptide
[23] = vaccinated donor V11, 1.430 weeks since 2nd dose, […], C1R-A2402 pre-pulsed with 1 μM peptide
[24] = vaccinated donor V12, 1.000 weeks since 2nd dose, […], C1R-A2402 pre-pulsed with 1 μM peptide
[25] = vaccinated donor V13, 9.000 weeks since 2nd dose, […], C1R-A2402 pre-pulsed with 1 μM peptide
[26] = vaccinated donor V14, 2.000 weeks since 2nd dose, […], C1R-A2402 pre-pulsed with 1 μM peptide
[27] = vaccinated donor V15, 6.860 weeks since 2nd dose, […], C1R-A2402 pre-pulsed with 1 μM peptide
[28] = vaccinated donor V16, 8.860 weeks since 2nd dose, […], C1R-A2402 pre-pulsed with 1 μM peptide
[29] = vaccinated donor V17, 4.140 weeks since 2nd dose, […], C1R-A2402 pre-pulsed with 1 μM peptide

Sequence | IFNg-producing cells among CD8 T cells (%) [1, 3] [%] | IFNg-producing cells among CD8 T cells (%) [1, 4] [%] | IFNg-producing cells among CD8 T cells (%) [1, 5] [%] | IFNg-producing cells among CD8 T cells (%) [1, 6] [%] | IFNg-producing cells among CD8 T cells (%) [1, 7] [%] | IFNg-producing cells among CD8 T cells (%) [1, 8] [%] | IFNg-producing cells among CD8 T cells (%) [1, 9] [%] | IFNg-producing cells among CD8 T cells (%) [1, 10] [%] | IFNg-producing cells among CD8 T cells (%) [1, 11] [%] | IFNg-producing cells among CD8 T cells (%) [1, 12] [%] | IFNg-producing cells among CD8 T cells (%) [1, 13] [%] | IFNg-producing cells among CD8 T cells (%) [1, 14] [%] | IFNg-producing cells among CD8 T cells (%) [1, 16] [%] | IFNg-producing cells among CD8 T cells (%) [1, 17] [%] | IFNg-producing cells among CD8 T cells (%) [1, 18] [%] | IFNg-producing cells among CD8 T cells (%) [1, 19] [%] | IFNg-producing cells among CD8 T cells (%) [1, 20] [%] | IFNg-producing cells among CD8 T cells (%) [1, 21] [%] | IFNg-producing cells among CD8 T cells (%) [1, 22] [%] | IFNg-producing cells among CD8 T cells (%) [1, 23] [%] | other results
AYSNNSIAI [S-AI9] | 0.000 | 0.037 | 0.000 | 0.000 | 0.000 | 0.180 | 0.160 | 0.510 | 0.000 | 0.000 | 0.918 | 0 | 0 | 0.54 | 0.014 | 0 | 0 | 0.488 | 0 | 0.134 | IFNg-producing cells among CD8 T cells (%) [1, 15]: 0%; IFNg-producing cells among CD8 T cells (%) [1, 24]: 0%; IFNg-producing cells among CD8 T cells (%) [1, 25]: 0.166%; IFNg-producing cells among CD8 T cells (%) [1, 26]: 0%; IFNg-producing cells among CD8 T cells (%) [1, 27]: 0%; IFNg-producing cells among CD8 T cells (%) [1, 28]: 0%; IFNg-producing cells among CD8 T cells (%) [1, 29]: 0%; MFI, HLA-A2402 (APC), representative staining [2]: 36.2
EYVSQPFLM [S-EM9] | 0.455 | 0.097 | 0.355 | 0.063 | 0.000 | 0.160 | 0.480 | 0.000 | 0.650 | 0.000 | 0.75 | 0.88 | 0 | 0.271 | 0.032 | 0 | 0 | 0 | 0.23 | 0.827 | IFNg-producing cells among CD8 T cells (%) [1, 15]: 0.063%; IFNg-producing cells among CD8 T cells (%) [1, 24]: 0%; IFNg-producing cells among CD8 T cells (%) [1, 25]: 0.062%; IFNg-producing cells among CD8 T cells (%) [1, 26]: 0%; IFNg-producing cells among CD8 T cells (%) [1, 27]: 0%; IFNg-producing cells among CD8 T cells (%) [1, 28]: 0.187%; IFNg-producing cells among CD8 T cells (%) [1, 29]: 0%; MFI, HLA-A2402 (APC), representative staining [2]: 38.7
GYLQPRTFLL [S-GL10] | 0.450 | 0.140 | 1.440 | 0.000 | 0.260 | 0.000 | 0.120 | 0.130 | 0.000 | 0.000 | 0 | 0 | 0.245 | 0.041 | 0 | 0 | 0.018 | 0.481 | 0.057 | 0.244 | Freq of responder (%) ([1]; of 17 vaccinated HLA-A*24:02+ individuals (Fig. 4b)): 5.9%; Resp: number of responders (individuals with epitope-specific CD8+ T cells) ([1]; of 17 vaccinated HLA-A*24:02+ individuals, […], 1 μM peptide): one; IFNg-producing cells among CD8 T cells (%) [1, 15]: 0.487%; IFNg-producing cells among CD8 T cells (%) [1, 24]: 1.194%; IFNg-producing cells among CD8 T cells (%) [1, 25]: 0%; IFNg-producing cells among CD8 T cells (%) [1, 26]: 0.774%; IFNg-producing cells among CD8 T cells (%) [1, 27]: 0.234%; IFNg-producing cells among CD8 T cells (%) [1, 28]: 0%; IFNg-producing cells among CD8 T cells (%) [1, 29]: 0%; MFI, HLA-A2402 (APC), representative staining [2]: 15.2
IYQTSNFRV [S-IV9] | 0.000 | 0.090 | 0.000 | 0.000 | 0.340 | 0.260 | 0.060 | 0.000 | 0.160 | 0.000 | 0 | 0.595 | 0 | 0 | 0.265 | 0 | 0 | 0 | 0 | 0.241 | IFNg-producing cells among CD8 T cells (%) [1, 15]: 0.717%; IFNg-producing cells among CD8 T cells (%) [1, 24]: 0%; IFNg-producing cells among CD8 T cells (%) [1, 25]: 0%; IFNg-producing cells among CD8 T cells (%) [1, 26]: 0%; IFNg-producing cells among CD8 T cells (%) [1, 27]: 0.005%; IFNg-producing cells among CD8 T cells (%) [1, 28]: 0.261%; IFNg-producing cells among CD8 T cells (%) [1, 29]: 0%; MFI, HLA-A2402 (APC), representative staining [2]: 33.2
RFDNPVLPF [S-RF9] | 0.770 | 0.050 | 1.110 | 0.000 | 0.000 | 0.000 | 0.000 | 0.000 | 0.000 | 0.000 | 0 | 0.296 | 0.333 | 0.15 | 0 | 0 | 0 | 0.769 | 0 | 0 | IFNg-producing cells among CD8 T cells (%) [1, 24]: 0.495%; IFNg-producing cells among CD8 T cells (%) [1, 25]: 0.076%; IFNg-producing cells among CD8 T cells (%) [1, 26]: 0.633%; IFNg-producing cells among CD8 T cells (%) [1, 27]: 0%; IFNg-producing cells among CD8 T cells (%) [1, 28]: 0.051%; IFNg-producing cells among CD8 T cells (%) [1, 29]: 0%; MFI, HLA-A2402 (APC), representative staining [2]: 10.5; binding to HLA-A*24:02 (in words) ([2]; […], 16 peptides tested at 100 μM): did not bind
